{"source": "paper PMC11984924", "about": "“Dipeptidic Phosphonates: Potent Inhibitors of Pseudomonas aeruginosa Elastase B Showing Efficacy in a Murine Keratitis Model” (Advanced Science, 2025)", "key": {"[1]": {"assay": "Tolerability study in male CD1 mice, repeated TID intravenous dosing", "type": "in vivo", "conditions": "mouse, 300 and 600 mg/kg/day, 3 days", "procedure": "Table S8: Percent (%) inhibition of the metabolic activity of three human cell lines HepG2 (hepatocellular carcinoma cells), HEK293 (human embryonic kidney 293 cells) and A549 (lung carcinoma epithelial cells). Results are means and SD of at least two independent ex periments.\n3.10 Evaluation of Zebrafish embryo toxicity\nThe experiment was performed according to a procedure described in the literature with minor modifications using zebrafish embryos of the AB wild -type line at 1 day post fertilization (dpf). A detailed protocol has been given in our recent publication.[16]\nStarting exposure ar 2 dpf. Ten larvae were tested for each condition. Dpf: days post fertilization.\n3.11 Tolerability study in male CD1 mice\nThis in vivo experiment was carried out at the CRO Selvita (Zagreb, Croatia). The study was performed in an AAALAC I- approved Facility. The standard study plan relating to this study was reviewed by the Ethics Committee (CARE- Zagreb) as required by International Laws/Regulations and Croatian Low on Animal Welfare (“The Animal Protection Act”, Official Gazette, NN 135/06 and NN 37/13) and Animal Welfare Officer. Animals were kept in solid […]\nThe observations and examinations that were made, comprise clinical signs, body weight, food consumption, macroscopy at termination and organ weights. Mortality was recorded twice a day, i.e. in the morning and at the end of the working day."}, "[2]": {"system": "P. aeruginosa strain PA54 keratitis", "assay": "Murine Pseudomonas keratitis model", "type": "in vivo, mouse", "procedure": "Based on our previous findings on target engagement in a murine pneumonia model in combination with a standard‐of‐care antibiotic,^[ [30] ^] we applied the dipeptide (R)‐30 alone and in combination with the commonly used antibiotic meropenem.^[ [9] ^] The keratitis model was carried out using aged female C57BL/6 mice, as previously published.^[ [37] ^] For infection, 5*10^7 colony forming units (CFUs) of PA54 were topically administered on denuded, mechanically harmed corneas. Treatments with meropenem, (R)‐30, or meropenem in combination with (R)‐30 were performed every 8 h for 72 h (first treatment at 6 h post infection). Each of the in total nine 5 µL‐doses contained 1 mg/mL (R)‐30 and/or 0.5 mg mL^−1 meropenem. Sham‐treated mice received 5 µL‐doses of the vehicle (0.9% saline and 1% DMSO) at the time points indicated above, and uninfected eyes received no treatment. […]\nAnimals: The animal experiments were approved by Saarland University’s Animal Welfare Committee (Application number: 17/2021) and conducted in accordance with German and European recommendations and guidelines for the ethical use of animals. The laboratory animals were all C57BL/6N female eight to eleven months old mice. Keeping in specific pathogen-free conditions was provided. Unlimited access to water and show was secured.\nTemperature was closely maintained around 22 °C and relative air humidity around 50%. Light and darkness alternated at twelve-hour intervals. All laboratory animals were purchased from Charles River GmbH, Sulzfeld, Germany.\nP. aeruginosa: The P. aeruginosa strain PA54 was employed to induce an experimental bacterial keratitis in the aforementioned C57BL/6N mice. The strain PA54 was isolated from human infections and collected at Saarland University Medical Center’s Institute for Medical Microbiology and Hygienics (IMMH) in 2009. According to Magiorakos et al., PA54 can be classified as multidrug-resistant due to its lacking sensibility to the anti-pseudomonal cephalosporins ceftazidime and cefepime, the anti-pseudomonal fluoroquinolones ciprofloxacin and levofloxacin, the […] fosfomycin, and the aminoglycoside gentamicin.[18] The minimum inhibitory concentration (MIC) of the reserve antibiotic meropenem (meropenem trihydrate, Sigma) was 1 µg/mL (sensitivity limit = 2 µg/mL). The exoU- and exoT-positivity of the PA54 strain, foregrounds its keratitogenic potential.\nInoculum: The P. aeruginosa strain PA54 is routinely grown overnight on blood agar (TrypticaseTM Soy Agar, 5% sheep blood, BD, Heidelberg, Germany) at 37 °C. To obtain a stationary phase cell inoculum, a freshly grown colony was inoculated in tryptic soy broth (TSB; BD, Heidelberg, Germany) and cultured at 37 °C and 150 rounds per minute (rpm) for 16 h.\nThen, 2 mL were centrifuged at 13,200 rpm at rt for 2 min, whereupon cells were resuspended in spent medium to an OD600 of 10 (∼1×1010 CFU/mL). Short storage on ice followed, before the infection procedure started.\nInfection Procedure: Anesthesia and infection were performed as previously published. Briefly, fentanyl (Hameln Pharma Plus GmbH, Hameln, Germany), midazolam hydrochloride (Midazolam-Hameln, 5 mg/mL, Hameln pharma GmbH, Germany) and medetomidine hydrochloride (Domitor, Orion Corporation, Espoo, Finland) were dissolved in 0.9% NaCl (NaCl 0.9%, Ecotainer 500 mL, B. Braun, Melsungen, Germany), dosed at 0.05 mg/kg, 5 mg/kg and 0.5 mg/kg body weight, respectively, and applied by intraperitoneal injection. Analgesia (Carprofen, 5 mg/kg body weight, Zoetis Deutschland GmbH, Berlin, Germany) was ap plied subcutaneously. Lacrimation was stopped with 10 µL of a 0.6% acetylcysteine solution (Pharmacy of Saarland University Hospitals, Homburg, Germany). Local analgesia (0.5% proxymetacaine hydrochloride, Proparakain -POS Augentropfen, Ursapharm Arzneimitt el GmbH, Saarbrücken, Germany) was eye-dropped and removed after 60 seconds. The blunt […]"}}, "data": [{"smiles": "CC(=O)c1ccc(NC(=O)[C@@H](NC(=O)[C@@H](CC(C)C)P(=O)(O)O)C(C)C)cc1", "note": "[(R)‐30]", "values": [{"measurement": "mortality, body weight, clinical signs", "setting": "[1]", "value": "no treatment–related mortality, nor effects on body weight or clinical signs"}, {"measurement": "effect on bacterial loads in the eye", "setting": "[2]; day 3 post infection", "value": "no clear effect on the bacterial loads"}, {"measurement": "IL‐1β levels in eye homogenate", "setting": "[2]; day 3 post infection, compared to sham treatment / uninfected eyes", "value": "significant reduction"}, {"measurement": "KC levels in eye homogenate", "setting": "[2]; day 3 post infection, compared to uninfected eyes", "value": "significantly higher amounts of this chemokine"}, {"measurement": "median clinical keratitis score", "setting": "[2]; day three post infection, topical every 8 h for 72 h, 1 mg/mL (R)-30 and/or 0.5 mg/mL meropenem", "value": 4}]}]}
